Reference: patent US20110045139A1, “FERMENTED SAUSAGE AND METHODS OF MAKING SAME” (priority 2009, published 2011)
Converted amounts (≈) assume the structure as drawn. Where two headings read alike, the source gives them in different places.

Key:
E. coli O157:H7 [1] = assay: In vitro formation of isothiocyanates by myrosinase, viable counts; assay type: cell-based, Escherichia coli O157:H7; conditions: glucosinolate 2.5 mM plus myrosinase 0.2 U/tube, MHB with sausage ingredients
[2] = system: E. coli O157:H7 (5-strain cocktail); assay: microbe, parasite or virus in culture; assay type: cell-based, Escherichia coli O157:H7; conditions: for MBC / Growth inhibition (p < 0.05): pH 5.5
Staphylococcus carnosus = assay: microbe, parasite or virus in culture; assay type: cell-based; conditions: pH 5.5
Pediococcus pentosaceus = assay: microbe, parasite or virus in culture; assay type: cell-based; conditions: pH 5.5
E. coli O157:H7 [3] = conditions: pH 4.9; cited from earlier work
E. coli O157:H7 [4] = assay: Minimum inhibitory concentration at dry-cured sausage pH; assay type: cell-based, Escherichia coli O157:H7; conditions: pH 5.5
[5] = system: Escherichia coli, Staphylococcus aureus, Campylobacter jejuni, Pseudomonas aeruginosa, Salmonella Enteritidis, Listeria monocytogenes, Shigella boydii and …; conditions: cited from earlier work

SMILES: C=CCC(=NOS(=O)(=O)O)S[C@@H]1O[C@H](CO)[C@@H](O)[C@H](O)[C@H]1O (stereo in doubt) [sinigrin]
- time after which E. coli was not detectable (E. coli O157:H7 [1]): 2 days

SMILES: C=CCN=C=S [AIT, allyl isothiocyanate]
- MBC ([2]; Escherichia coli, 18 h): 1040 µM (≈ 103 µg/mL)
- Growth inhibition (p < 0.05) [2]: 0.26 mM
- MBC (Staphylococcus carnosus; Staphylococcus carnosus, 18 h): 1040 µM (≈ 103 µg/mL)
- Growth inhibition (p < 0.05) (Staphylococcus carnosus): 0.26 mM
- MBC (Pediococcus pentosaceus; Pediococcus pentosaceus, 18 h): 20800 µM (≈ 2060 µg/mL)
- Growth inhibition (p < 0.05) (Pediococcus pentosaceus): 10.40 mM
- minimum inhibitory concentration (E. coli O157:H7 [3]): ~250 µM (≈ 24.8 µg/mL)

SMILES: O=S(=O)(O)O/N=C(/Cc1ccc(O)cc1)S[C@@H]1O[C@H](CO)[C@@H](O)[C@H](O)[C@H]1O [sinalbin]
- time after which E. coli was not detectable (E. coli O157:H7 [1]): 3 days

SMILES: OCc1ccc(O)cc1 [ρ-HBA, ρ-hydroxybenzyl alcohol]
- inhibitory activity against E. coli O157:H7 [2]: very weak
- Growth inhibition (p < 0.05) [2]: 20.14 mM

SMILES: Oc1ccc(CN=C=S)cc1 [ρ-HBIT, ρ-hydroxybenzyl isothiocyanate]
- minimum inhibitory concentration (E. coli O157:H7 [4]): ~600 µM (≈ 99.1 µg/mL)
- Growth inhibition (p < 0.05) [2]: 0.59 mM
- MBC [2]: 1480 µM (≈ 245 µg/mL)
- Growth inhibition (p < 0.05) (Staphylococcus carnosus): 0.3 mM
- MBC (Staphylococcus carnosus): 590 µM (≈ 97.5 µg/mL)
- Growth inhibition (p < 0.05) (Pediococcus pentosaceus): 1.48 mM
- MBC (Pediococcus pentosaceus): 5920 µM (≈ 978 µg/mL)
- bactericidal concentration [5]: 0.35 to 2.13 mM
